{
  "source": "ChEMBL document CHEMBL5465560",
  "about": "“Selectivity Literature for EUbOPEN Chemogenomic Library” (2024)",
  "key": {"[1]": {"target": "Mast/stem cell growth factor receptor Kit (Homo sapiens, UniProt P10721)", "sequence (P10721 whole entry)": "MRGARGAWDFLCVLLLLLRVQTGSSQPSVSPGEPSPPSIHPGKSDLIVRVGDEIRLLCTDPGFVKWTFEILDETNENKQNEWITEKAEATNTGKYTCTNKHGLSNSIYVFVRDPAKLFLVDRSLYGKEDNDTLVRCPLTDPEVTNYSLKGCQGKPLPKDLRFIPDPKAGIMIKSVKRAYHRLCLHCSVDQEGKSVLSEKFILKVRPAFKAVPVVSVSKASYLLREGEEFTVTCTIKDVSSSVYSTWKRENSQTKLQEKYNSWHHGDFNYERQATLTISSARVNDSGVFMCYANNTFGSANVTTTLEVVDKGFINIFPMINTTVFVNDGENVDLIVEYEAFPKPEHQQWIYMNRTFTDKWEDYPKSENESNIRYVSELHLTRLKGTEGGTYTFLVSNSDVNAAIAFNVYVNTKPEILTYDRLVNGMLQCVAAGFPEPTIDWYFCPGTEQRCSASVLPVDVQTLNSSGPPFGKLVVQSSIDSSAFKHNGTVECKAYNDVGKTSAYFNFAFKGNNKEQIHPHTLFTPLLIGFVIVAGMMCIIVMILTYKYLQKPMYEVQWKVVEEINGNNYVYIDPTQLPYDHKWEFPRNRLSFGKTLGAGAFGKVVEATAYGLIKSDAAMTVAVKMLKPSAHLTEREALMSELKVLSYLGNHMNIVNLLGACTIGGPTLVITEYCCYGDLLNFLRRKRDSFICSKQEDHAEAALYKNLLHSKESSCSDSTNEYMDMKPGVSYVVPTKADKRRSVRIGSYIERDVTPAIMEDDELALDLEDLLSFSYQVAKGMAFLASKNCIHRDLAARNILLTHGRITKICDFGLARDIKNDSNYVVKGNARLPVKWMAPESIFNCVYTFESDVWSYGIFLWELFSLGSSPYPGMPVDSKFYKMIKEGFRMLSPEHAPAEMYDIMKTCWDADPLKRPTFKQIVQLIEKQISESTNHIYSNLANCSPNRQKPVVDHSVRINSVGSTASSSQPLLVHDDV", "assay": "Selectivity interaction (Kinase panel (Invitrogen)) EUB0000639a KIT", "details": "at 200 nM"}, "[2]": {"target": "Mitogen-activated protein kinase kinase kinase kinase 5 (Homo sapiens) (UniProt Q9Y4K4)", "sequence (Q9Y4K4 whole entry, looked up)": "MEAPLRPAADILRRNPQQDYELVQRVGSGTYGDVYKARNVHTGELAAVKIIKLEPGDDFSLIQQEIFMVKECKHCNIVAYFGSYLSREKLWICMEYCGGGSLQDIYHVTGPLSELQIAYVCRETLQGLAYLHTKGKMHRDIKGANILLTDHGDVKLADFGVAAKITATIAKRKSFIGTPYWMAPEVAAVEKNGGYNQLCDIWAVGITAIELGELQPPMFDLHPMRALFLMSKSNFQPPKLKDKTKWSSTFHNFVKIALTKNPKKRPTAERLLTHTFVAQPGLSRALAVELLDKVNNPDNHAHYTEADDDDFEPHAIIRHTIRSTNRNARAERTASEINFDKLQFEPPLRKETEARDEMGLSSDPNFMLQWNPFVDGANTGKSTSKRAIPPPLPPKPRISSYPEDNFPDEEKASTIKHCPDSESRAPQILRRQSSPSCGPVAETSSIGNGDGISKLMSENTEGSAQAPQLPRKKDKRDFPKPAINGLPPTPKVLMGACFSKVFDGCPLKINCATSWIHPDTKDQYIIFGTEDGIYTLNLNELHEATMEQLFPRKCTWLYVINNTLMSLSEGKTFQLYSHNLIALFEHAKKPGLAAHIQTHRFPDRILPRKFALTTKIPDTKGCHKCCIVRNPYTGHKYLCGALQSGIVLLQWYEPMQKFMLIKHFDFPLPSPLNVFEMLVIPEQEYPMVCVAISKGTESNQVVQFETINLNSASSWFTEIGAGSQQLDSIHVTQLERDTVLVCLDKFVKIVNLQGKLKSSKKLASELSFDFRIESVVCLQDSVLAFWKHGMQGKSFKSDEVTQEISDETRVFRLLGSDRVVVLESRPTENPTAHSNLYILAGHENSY", "assay": "Selectivity interaction (KinomeScan (DiscoverX)) EUB0001049a MAP4K5", "details": "at 1 µM"}, "[3]": {"target": "Serine/threonine-protein kinase PLK2 (Homo sapiens, UniProt Q9NYY3)", "sequence (Q9NYY3 whole entry, looked up)": "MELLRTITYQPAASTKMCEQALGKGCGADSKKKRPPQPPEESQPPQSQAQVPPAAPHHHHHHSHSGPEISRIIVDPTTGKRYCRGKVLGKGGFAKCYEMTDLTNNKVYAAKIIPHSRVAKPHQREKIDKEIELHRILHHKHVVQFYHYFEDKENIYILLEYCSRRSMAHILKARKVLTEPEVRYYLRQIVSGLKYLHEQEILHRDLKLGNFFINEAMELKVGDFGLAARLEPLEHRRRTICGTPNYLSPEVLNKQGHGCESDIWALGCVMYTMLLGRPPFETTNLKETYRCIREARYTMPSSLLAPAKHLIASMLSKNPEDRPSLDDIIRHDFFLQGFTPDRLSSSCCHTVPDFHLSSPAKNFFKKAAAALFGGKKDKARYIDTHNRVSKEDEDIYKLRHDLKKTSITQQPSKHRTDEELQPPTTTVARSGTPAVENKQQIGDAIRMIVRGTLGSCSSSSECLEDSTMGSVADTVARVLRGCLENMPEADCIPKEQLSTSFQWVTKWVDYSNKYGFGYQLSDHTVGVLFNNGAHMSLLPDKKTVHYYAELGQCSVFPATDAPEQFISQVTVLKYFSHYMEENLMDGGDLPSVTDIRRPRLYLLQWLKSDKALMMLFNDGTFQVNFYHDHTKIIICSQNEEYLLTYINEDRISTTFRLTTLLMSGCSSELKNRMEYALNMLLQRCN", "assay": "Selectivity interaction (KinomeScan (DiscoverX)) EUB0001049a PLK2", "details": "at 1 µM"}, "[4]": {"target": "Mitogen-activated protein kinase 11 (Homo sapiens) (UniProt Q15759)", "sequence (Q15759 whole entry)": "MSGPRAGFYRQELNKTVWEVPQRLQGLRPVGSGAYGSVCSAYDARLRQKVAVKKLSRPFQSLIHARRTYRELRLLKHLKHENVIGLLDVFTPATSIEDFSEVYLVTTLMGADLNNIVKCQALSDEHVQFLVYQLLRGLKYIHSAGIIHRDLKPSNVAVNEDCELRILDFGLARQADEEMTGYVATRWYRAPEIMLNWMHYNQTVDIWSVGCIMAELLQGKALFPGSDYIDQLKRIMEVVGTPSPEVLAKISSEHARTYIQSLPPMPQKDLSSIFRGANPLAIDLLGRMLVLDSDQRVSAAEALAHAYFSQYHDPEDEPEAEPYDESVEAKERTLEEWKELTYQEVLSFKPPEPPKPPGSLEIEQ", "assay": "Selectivity interaction (KinomeScan (DiscoverX)) EUB0000045b MAPK11"}, "[5]": {"target": "Bromodomain-containing protein 2 (Homo sapiens) (UniProt P25440)", "sequence (P25440 whole entry, looked up)": "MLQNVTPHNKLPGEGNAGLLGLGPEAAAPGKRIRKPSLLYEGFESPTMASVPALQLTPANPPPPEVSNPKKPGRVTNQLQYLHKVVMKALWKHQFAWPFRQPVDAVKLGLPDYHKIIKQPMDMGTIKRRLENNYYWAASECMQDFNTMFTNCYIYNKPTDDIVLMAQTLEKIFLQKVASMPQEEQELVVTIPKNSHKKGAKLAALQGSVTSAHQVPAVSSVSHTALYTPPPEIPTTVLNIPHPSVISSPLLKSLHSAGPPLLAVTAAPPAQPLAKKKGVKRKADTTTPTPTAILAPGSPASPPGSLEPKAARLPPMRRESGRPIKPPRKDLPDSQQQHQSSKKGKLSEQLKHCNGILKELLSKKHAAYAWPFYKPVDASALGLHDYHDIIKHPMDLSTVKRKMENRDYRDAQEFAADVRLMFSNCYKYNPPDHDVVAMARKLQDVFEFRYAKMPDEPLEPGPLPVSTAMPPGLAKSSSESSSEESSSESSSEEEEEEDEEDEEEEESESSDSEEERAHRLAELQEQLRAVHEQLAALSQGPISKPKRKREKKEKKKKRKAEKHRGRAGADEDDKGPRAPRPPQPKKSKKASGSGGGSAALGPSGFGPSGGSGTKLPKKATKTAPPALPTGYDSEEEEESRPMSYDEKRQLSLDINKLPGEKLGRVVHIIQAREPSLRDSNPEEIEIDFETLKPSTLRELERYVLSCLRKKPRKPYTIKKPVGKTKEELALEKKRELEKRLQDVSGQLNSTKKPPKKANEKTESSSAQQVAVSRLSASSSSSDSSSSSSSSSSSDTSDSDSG", "assay": "Selectivity interaction (Bromodomain panel (DSF asssay)) EUB0000270b BRD2"}, "[6]": {"target": "T1, Histone-lysine N-methyltransferase NSD3 (Homo sapiens) (UniProt Q9BZ95)", "T1 sequence (whole entry)": "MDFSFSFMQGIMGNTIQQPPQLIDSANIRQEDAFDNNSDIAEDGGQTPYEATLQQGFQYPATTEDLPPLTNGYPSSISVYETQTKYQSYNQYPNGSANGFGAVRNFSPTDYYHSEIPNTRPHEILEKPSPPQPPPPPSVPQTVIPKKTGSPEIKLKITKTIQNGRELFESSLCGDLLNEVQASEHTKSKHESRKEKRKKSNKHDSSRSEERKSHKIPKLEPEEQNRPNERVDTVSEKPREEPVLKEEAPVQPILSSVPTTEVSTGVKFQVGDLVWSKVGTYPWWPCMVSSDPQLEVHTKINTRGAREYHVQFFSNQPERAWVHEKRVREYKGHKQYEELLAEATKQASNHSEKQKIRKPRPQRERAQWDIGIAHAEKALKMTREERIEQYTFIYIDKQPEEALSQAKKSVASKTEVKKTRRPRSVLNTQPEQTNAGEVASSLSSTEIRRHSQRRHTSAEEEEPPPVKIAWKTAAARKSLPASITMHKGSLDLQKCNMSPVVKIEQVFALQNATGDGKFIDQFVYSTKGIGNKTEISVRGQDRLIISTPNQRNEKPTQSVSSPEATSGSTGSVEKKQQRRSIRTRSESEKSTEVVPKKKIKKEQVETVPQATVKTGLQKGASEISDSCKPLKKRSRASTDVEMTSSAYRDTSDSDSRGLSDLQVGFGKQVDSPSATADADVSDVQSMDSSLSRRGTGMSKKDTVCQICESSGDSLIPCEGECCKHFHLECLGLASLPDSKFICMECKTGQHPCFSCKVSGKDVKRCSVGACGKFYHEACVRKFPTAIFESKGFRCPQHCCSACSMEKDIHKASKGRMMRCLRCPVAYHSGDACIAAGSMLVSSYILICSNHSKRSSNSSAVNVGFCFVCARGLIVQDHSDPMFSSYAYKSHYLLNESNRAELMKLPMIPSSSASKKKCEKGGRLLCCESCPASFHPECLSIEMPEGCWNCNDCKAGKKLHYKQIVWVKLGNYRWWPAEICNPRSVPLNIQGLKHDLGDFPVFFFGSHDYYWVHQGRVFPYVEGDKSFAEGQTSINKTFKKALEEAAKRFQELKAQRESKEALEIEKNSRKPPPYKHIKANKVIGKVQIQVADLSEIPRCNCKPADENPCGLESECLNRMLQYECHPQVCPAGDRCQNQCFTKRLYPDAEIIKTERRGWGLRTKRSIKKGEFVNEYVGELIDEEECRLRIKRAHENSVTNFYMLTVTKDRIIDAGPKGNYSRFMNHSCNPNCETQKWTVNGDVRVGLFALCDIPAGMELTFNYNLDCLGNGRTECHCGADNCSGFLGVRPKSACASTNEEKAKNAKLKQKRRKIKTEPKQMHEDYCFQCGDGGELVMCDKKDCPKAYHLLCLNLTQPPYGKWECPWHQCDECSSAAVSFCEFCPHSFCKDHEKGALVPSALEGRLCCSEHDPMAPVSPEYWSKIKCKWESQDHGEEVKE", "assay": "Selectivity interaction (PWWP, WD40, and Tudor domain panel (DSLS measurements, literature)) EUB0000270b NSD3"}, "[7]": {"target": "Tyrosine-protein kinase FRK (Homo sapiens) (UniProt P42685)", "sequence (P42685 whole entry)": "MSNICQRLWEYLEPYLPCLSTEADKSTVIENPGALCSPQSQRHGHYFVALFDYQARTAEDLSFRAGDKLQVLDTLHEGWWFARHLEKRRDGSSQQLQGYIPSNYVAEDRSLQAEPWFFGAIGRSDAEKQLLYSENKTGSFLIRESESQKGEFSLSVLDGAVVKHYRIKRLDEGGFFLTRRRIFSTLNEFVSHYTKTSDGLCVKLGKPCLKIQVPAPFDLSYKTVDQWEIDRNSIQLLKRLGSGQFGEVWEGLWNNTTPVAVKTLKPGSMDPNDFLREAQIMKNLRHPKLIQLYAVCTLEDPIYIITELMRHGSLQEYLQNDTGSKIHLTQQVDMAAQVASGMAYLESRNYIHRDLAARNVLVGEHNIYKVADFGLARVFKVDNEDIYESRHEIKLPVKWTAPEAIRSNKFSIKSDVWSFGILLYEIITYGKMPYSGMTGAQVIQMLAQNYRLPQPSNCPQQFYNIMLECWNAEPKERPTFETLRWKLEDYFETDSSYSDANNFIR", "assay": "Selectivity interaction (KinomeScan (DiscoverX)) EUB0000618a FRK", "details": "at 10 µM"}, "[8]": {"target": "T2, Protein kinase C iota type (Homo sapiens) (UniProt P41743)", "T2 sequence (whole entry)": "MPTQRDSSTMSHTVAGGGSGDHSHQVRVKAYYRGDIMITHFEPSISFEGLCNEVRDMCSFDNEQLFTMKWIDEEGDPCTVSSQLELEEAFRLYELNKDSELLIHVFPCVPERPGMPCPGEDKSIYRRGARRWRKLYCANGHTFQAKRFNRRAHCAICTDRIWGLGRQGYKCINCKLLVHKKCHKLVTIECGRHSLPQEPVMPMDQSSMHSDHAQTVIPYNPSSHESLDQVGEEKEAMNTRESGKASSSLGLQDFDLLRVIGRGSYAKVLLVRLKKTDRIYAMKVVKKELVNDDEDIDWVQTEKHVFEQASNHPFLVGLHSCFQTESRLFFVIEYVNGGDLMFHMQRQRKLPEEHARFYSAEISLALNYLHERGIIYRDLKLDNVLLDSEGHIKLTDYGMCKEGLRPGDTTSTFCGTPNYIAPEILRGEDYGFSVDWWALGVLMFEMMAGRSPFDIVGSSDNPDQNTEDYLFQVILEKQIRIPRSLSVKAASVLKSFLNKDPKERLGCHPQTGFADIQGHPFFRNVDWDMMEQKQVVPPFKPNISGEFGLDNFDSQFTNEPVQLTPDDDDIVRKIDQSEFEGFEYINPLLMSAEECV", "assay": "Selectivity interaction (KinomeScan (DiscoverX)) EUB0000618a PRKCI", "details": "at 10 µM"}},
  "data": [
    {"molecule": "CC[C@@H]1[C@H](F)C(=O)N[C@@H]1COc1nccc2cc(C(N)=O)c(OC)cc12", "note": "[ZIMLOVISERTIB]", "values": [
      {"measurement": "% of inhibition", "setting": "[1]", "result": 2.99, "unit": "%"}
    ]},
    {"molecule": "COc1cc(Nc2nc(C)cc(-c3cnn4nc(OC)ccc34)n2)cc(C(F)(F)F)c1", "values": [
      {"measurement": "% of control", "setting": "[2]", "result": 94, "unit": "%"},
      {"measurement": "% of control", "setting": "[3]", "result": 77, "unit": "%"}
    ]},
    {"molecule": "C=CC(=O)Nc1cc(-n2c(=O)ccc3cnc4ccc(-c5ccc(NS(C)(=O)=O)cc5)cc4c32)ccc1C", "values": [
      {"measurement": "% of control", "setting": "[4]; at 1 µM", "result": 90, "unit": "%"},
      {"measurement": "% of control", "setting": "[4]; at 10 µM", "result": 95, "unit": "%"}
    ]},
    {"molecule": "Cc1cc(CN)cc(C)c1-c1ncn(C)c1-c1cncn1C", "values": [
      {"measurement": "dTM", "setting": "[5]", "result": -1.94, "unit": "K"},
      {"measurement": "dTagg", "setting": "[6]", "result": 0.7, "unit": "K"}
    ]},
    {"molecule": "O[C@H]1CC[C@H](Nc2ncc3nc(Nc4c(F)cc(F)cc4F)n([C@H]4CCOC4)c3n2)CC1", "values": [
      {"measurement": "% of control", "setting": "[7]", "result": 100, "unit": "%"},
      {"measurement": "% of control", "setting": "[8]", "result": 100, "unit": "%"}
    ]}
  ]
}
